# In publication PMC4077706, “Lifting the Mask: Identification of New Small Molecule Inhibitors of Uropathogenic Escherichia coli Group 2 Capsule Biogenesis” (PLoS ONE, 2014):
# Key:
# Adenosine A2A = target: T1, Adenosine A2A (Homo sapiens, UniProt P29274); experiment: Radioligand binding 200610; settings: 10 µM
# T1 construct: host or cells: HEK-293 cells
# Adrenergic α1B = target: T2, Adrenergic α1B (Rattus norvegicus, UniProt P15823); assay type: binding; settings: 10 µM
# T2 construct: Wistar Rat liver; tissue Eurofins Panlabs (assay Cat #) 203200; host or cells: Wistar rat liver
# T2 sequence (P15823 whole entry): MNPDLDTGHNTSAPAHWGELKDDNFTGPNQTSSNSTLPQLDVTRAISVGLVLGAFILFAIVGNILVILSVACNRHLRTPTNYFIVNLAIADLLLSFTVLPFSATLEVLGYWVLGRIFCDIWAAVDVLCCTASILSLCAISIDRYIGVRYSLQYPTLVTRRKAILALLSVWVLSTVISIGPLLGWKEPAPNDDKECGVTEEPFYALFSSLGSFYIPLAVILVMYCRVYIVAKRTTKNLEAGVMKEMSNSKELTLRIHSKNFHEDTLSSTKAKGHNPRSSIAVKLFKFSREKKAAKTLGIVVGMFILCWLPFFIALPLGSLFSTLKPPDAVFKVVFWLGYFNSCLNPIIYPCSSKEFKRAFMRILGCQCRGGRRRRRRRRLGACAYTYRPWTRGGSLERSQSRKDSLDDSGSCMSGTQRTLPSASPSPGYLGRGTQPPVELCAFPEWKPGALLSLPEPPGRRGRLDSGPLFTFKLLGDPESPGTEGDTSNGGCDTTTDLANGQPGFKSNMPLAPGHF
# Adrenergic α1D = target: T3, Adrenergic α1D (Homo sapiens, UniProt P25100); assay type: binding; settings: 10 µM
# T3 construct: host or cells: HEK-293 cells
# T3 sequence (P25100 whole entry): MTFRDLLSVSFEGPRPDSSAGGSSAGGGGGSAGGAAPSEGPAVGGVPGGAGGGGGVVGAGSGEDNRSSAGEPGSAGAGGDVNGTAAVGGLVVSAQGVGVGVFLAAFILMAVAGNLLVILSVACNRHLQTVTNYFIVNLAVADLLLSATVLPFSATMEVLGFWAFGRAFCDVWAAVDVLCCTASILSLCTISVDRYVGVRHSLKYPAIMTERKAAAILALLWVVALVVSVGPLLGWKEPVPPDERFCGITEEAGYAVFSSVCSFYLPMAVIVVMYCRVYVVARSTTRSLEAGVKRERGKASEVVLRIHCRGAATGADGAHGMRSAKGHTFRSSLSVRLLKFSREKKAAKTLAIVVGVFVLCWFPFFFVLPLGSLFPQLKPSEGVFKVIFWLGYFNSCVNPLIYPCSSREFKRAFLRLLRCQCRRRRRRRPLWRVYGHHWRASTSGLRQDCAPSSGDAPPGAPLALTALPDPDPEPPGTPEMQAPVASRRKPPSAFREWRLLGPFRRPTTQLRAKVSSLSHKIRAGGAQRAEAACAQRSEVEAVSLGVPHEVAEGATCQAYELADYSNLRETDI
# Adrenergic β2 = target: T4, Adrenergic β2 (Homo sapiens, UniProt P07550); assay type: binding; settings: 10 µM
# T4 construct: host or cells: CHO cells
# Calcium Channel N-Type = Calcium Channel N-Type (Rattus norvegicus, UniProt Q02294); experiment: biochemical; assay type: binding; settings: 10 µM
# Dopamine D1 = target: T5, Dopamine D1 (Homo sapiens, UniProt P21728); assay type: binding; settings: 10 µM
# T5 construct: host or cells: CHO cells
# T5 sequence (P21728 whole entry): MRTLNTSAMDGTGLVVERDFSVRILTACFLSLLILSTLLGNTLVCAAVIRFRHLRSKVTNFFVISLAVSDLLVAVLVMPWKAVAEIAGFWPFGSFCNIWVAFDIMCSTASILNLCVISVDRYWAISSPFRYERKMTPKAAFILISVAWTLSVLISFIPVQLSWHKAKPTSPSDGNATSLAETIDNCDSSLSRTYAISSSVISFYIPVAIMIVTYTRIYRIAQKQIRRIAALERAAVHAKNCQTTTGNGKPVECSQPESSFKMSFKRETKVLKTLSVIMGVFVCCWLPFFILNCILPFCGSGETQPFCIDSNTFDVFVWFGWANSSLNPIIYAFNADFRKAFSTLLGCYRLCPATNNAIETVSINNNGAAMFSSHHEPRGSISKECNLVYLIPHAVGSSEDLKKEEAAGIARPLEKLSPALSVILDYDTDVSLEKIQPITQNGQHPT
# Endothelin ETA = target: T6, Endothelin ETA (Homo sapiens, UniProt P25101); assay type: binding; settings: 10 µM
# T6 construct: host or cells: CHO-K1 cells
# [1] = target: T7, Epidermal Growth Factor (EGF) (Homo sapiens, UniProt P00533); experiment: Radioligand binding 225510; settings: 10 µM
# T7 construct: Human A431 cells; host or cells: A431 cells
# GABAA, Muscimol, Central = assay type: binding, rat; settings: 10 µM
# Histamine H3 = target: T8, Histamine H3 (Homo sapiens, UniProt Q9Y5N1); experiment: Radioligand binding 239820; settings: 10 µM
# T8 construct: host or cells: CHO-K1 cells
# Interleukin IL-1 = target: T9, Interleukin IL-1 (Mus musculus, UniProt P13504); experiment: Radioligand binding 243520; settings: 10 µM
# T9 construct: Mouse 3T3-SWISS cells; host or cells: Swiss 3T3 mouse fibroblasts
# T9 sequence (P13504 20-576): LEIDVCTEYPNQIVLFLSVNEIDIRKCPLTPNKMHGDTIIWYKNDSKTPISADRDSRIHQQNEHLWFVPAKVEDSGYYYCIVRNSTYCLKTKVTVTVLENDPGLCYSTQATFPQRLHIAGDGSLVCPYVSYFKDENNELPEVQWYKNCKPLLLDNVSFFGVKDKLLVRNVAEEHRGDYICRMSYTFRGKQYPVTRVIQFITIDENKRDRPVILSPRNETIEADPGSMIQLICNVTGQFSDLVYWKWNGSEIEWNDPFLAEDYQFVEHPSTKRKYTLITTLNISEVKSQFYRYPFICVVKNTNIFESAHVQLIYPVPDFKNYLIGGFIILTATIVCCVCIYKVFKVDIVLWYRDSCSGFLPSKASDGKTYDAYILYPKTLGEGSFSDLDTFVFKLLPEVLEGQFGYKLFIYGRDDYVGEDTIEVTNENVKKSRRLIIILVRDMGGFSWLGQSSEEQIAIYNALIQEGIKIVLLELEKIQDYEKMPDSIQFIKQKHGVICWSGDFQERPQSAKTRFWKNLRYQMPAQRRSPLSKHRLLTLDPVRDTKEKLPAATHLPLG
# [2] = target: T10, Leukotriene, Cysteinyl CysLT1 (Homo sapiens, UniProt Q9Y271); experiment: Radioligand binding 250460; settings: 10 µM
# T10 construct: host or cells: CHO-K1 cells
# Nicotinic Acetylcholine = experiment: Radioligand binding 258590; design: species or system human; settings: 10 µM
# Opiate κ(OP2, KOP) = Opiate κ(OP2, KOP) (Homo sapiens, UniProt P41145); assay type: binding; settings: 10 µM
# Sequence of Opiate κ(OP2, KOP) (P41145 whole entry): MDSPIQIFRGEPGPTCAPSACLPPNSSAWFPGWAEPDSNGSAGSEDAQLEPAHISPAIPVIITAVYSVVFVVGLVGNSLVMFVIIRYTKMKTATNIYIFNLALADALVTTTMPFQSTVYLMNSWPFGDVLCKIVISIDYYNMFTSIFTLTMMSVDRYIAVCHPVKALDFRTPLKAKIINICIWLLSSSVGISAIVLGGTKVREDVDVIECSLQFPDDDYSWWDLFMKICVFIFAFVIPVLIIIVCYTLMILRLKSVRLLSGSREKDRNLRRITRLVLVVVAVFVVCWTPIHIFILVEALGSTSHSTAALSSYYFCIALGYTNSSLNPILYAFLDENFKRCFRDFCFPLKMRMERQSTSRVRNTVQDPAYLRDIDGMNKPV
# Opiate µ(OP3, MOP) = target: T11, Opiate µ(OP3, MOP) (Homo sapiens, UniProt P35372); assay type: binding; settings: 10 µM
# T11 construct: host or cells: CHO-K1 cells
# T11 sequence (P35372 whole entry): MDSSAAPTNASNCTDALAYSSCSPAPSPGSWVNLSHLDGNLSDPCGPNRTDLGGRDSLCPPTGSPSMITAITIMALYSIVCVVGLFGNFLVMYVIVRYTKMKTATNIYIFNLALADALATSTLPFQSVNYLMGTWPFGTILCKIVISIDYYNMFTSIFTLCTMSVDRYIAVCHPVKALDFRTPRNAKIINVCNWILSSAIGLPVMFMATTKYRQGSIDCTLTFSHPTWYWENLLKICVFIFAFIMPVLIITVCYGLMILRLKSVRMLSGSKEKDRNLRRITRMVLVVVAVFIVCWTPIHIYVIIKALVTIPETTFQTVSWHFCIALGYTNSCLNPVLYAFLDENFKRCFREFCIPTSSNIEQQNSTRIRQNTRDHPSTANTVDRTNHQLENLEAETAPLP
# Prostanoid EP4 = target: T12, Prostanoid EP4 (Homo sapiens, UniProt P35408); experiment: Radioligand binding 268420; settings: 10 µM
# T12 construct: host or cells: Chem-1
# T12 sequence (P35408 whole entry): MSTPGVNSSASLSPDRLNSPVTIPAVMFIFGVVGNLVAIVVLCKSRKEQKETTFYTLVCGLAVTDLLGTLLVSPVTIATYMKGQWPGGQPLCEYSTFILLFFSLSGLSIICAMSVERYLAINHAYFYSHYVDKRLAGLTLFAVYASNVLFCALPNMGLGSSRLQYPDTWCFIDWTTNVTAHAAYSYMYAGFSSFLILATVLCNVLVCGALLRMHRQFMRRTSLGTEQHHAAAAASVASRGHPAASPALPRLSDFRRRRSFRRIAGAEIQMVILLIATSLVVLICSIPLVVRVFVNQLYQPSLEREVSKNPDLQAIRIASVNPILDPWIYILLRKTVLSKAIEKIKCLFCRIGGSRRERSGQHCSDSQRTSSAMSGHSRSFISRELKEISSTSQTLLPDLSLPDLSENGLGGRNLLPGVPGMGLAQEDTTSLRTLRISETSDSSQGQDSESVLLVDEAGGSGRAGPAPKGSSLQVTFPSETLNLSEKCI
# Purinergic P2X = experiment: Radioligand binding 268700; design: species or system rabbit; settings: 10 µM
# Sigma σ1 = Sigma σ1 (Homo sapiens, UniProt Q99720); assay type: binding; settings: 10 µM
# Sequence of Sigma σ1 (Q99720 whole entry): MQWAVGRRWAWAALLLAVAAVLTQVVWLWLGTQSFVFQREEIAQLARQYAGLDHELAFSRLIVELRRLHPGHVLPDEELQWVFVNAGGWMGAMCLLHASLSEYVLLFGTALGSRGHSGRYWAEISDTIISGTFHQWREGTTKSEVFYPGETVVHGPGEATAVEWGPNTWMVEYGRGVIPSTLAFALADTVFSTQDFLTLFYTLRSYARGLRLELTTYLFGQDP
# Thyroid Hormone = Thyroid Hormone (Rattus norvegicus, UniProt P18113); assay type: binding; settings: 10 µM
# Transporter, GABA = target: T13, Transporter, GABA (Rattus norvegicus, UniProt P23978); experiment: Radioligand binding 226400; settings: 10 µM
# T13 construct: Wistar Rat cerebral cortex; tissue Eurofins Panlabs 226400; host or cells: Wistar rat cerebral cortex
# [3] = target: T14, Transporter, Norepinephrine (NET) (Homo sapiens, UniProt P23975); assay type: binding; settings: 10 µM
# T14 construct: host or cells: MDCK
# [4] = target: T15, Transporter, Serotonin (5-Hydroxytryptamine) (SERT) (Homo sapiens, UniProt P31645); assay type: binding; settings: 10 µM
# T15 construct: host or cells: HEK-293
# [5] = Human
# [6] = Human; remark: listed apart in the source
# Histamine H2 = Histamine H2 (Homo sapiens, UniProt P25021); experiment: Radioligand binding 239710; design: host or cells: CHO-K1 cells; settings: 10 µM
# Sequence of Histamine H2 (P25021 whole entry): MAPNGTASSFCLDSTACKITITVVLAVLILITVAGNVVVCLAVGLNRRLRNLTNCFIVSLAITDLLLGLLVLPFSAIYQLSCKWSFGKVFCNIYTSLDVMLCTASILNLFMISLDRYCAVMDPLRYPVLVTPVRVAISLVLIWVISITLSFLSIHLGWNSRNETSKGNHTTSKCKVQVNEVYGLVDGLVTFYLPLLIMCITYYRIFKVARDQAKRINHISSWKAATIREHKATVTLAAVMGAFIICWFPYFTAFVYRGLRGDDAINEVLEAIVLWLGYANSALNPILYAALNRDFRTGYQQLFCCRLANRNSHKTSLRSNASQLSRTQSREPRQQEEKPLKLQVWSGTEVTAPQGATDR
# Muscarinic M3 = Muscarinic M3 (Homo sapiens, UniProt P20309); assay type: binding; design: host or cells: CHO-K1 cells; settings: 10 µM
# Opiate δ1 (OP1, DOP) = Opiate δ1 (OP1, DOP) (Homo sapiens, UniProt P41143); assay type: binding; design: host or cells: HEK-293 cells; settings: 10 µM
# Sequence of Opiate δ1 (OP1, DOP) (P41143 whole entry): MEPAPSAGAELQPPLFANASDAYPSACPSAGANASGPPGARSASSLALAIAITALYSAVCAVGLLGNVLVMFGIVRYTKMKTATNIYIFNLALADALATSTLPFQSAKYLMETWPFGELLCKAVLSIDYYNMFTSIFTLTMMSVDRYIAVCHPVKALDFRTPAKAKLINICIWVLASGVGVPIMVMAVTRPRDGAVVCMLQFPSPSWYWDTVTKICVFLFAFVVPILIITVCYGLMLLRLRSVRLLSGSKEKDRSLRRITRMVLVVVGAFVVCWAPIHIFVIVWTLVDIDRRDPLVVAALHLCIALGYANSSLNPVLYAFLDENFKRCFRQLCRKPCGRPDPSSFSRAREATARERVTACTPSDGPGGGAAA
# Glutamate, NMDA, Glycine = Glutamate, NMDA, Glycine (Rattus norvegicus, UniProt P35439); assay type: binding; design: Wistar Rat cerebral cortex; tissue Eurofins Panlabs 232910; host or cells: Wistar rat cerebral cortex; settings: 10 µM
compound,measurement,setting,value
CCOc1ccc(-c2cc(NC(=O)c3c(F)cccc3F)c(C(=O)O)s2)cc1 [DU011],% Inh.,Adenosine A2A,-6%
same,% Inh.,Adrenergic α1B,14%
same,% Inh.,Adrenergic α1D,7%
same,% Inh.,Adrenergic β2,8%
same,% Inh.,Calcium Channel N-Type,-18%
same,% Inh.,Dopamine D1,4%
same,% Inh.,Endothelin ETA,-4%
same,% Inh.,[1],8%
same,% Inh.,"GABAA, Muscimol, Central",4%
same,% Inh.,Histamine H3,13%
same,% Inh.,Interleukin IL-1,4%
same,% Inh.,[2],19%
same,% Inh.,Nicotinic Acetylcholine,22%
same,% Inh.,"Opiate κ(OP2, KOP)",10%
same,% Inh.,"Opiate µ(OP3, MOP)",1%
same,% Inh.,Prostanoid EP4,-4%
same,% Inh.,Purinergic P2X,6%
same,% Inh.,Sigma σ1,9%
same,% Inh.,Thyroid Hormone,20%
same,% Inh.,"Transporter, GABA",-4%
same,% Inh.,[3],58%
same,% Inh.,[4],5%
same,"Hepatic Microsome Stability, percent remaining at 1 hr",[5],89.64%
same,"Plasma Stability, percent remaining at 3 hrs",[6],95.31%
same,% Inh.,Histamine H2,2%
same,% Inh.,Muscarinic M3,-3%
same,% Inh.,"Opiate δ1 (OP1, DOP)",10%
same,% Inh.,"Glutamate, NMDA, Glycine",6%
